Data published in patent US5013719A, “Method of effecting immunosuppression” (Merrell Dow Pharmaceuticals Inc., priority 1988, dated 1991).

Tested on: cytolytic T lymphocyte induction (51Cr labeled P815 target cells)
Assay: Cytolytic T-lymphocyte induction in vivo (splenic cytolytic activity, 4-hour 51Cr release assay)
Parameters: species or system C57BL/6 mice
Settings: DFMO 2% in drinking water from day 1; splenic CTL activity day 10; vs vehicle treated control
Procedure: Alloreactive cytolytic T-lymphocytes (CTL) are generated in vivo by injecting C57BL/6 mice intraperitoneally with allogenic P815 (H-2^d) cells (10^7) on day 0.
Splenic cytolytic activity, which represents a direct measurement of immune response, is assessed by a 4-hour ^51 Cr release assay as described by Bowlin et al., Cell. […] Effector cells are characterized as T-cells based on surface phenotype (Thy 1.2^+, Lyt 2.2^+, L3T4^-) and allo-specificity (H-^2 d) as described by Bowlin et al., Cell Immunnol.
^a C57BL/6 mice were injected with allogeneic P815 cells on day 0.
DFMO was administered continuously, starting on day 1, in drinking water.
^b Splenic cytolytic T lymphocyte activity was assessed on day 10
utilizing ^51 Cr labeled P815 target cells. Data is expressed as %
inhibition compared with vehicle treated control.

NCCC[C@](N)(C(=O)O)C(F)F [DFMO, α-difluoromethylornithine]
Cytolytic T Lymphocyte Induction % Inhibition (mean ± S.E., n = 3): 10 ± 0.5%
